13 molecules from US10376480B2, “Biguanide derivative, a preparation method thereof, and a pharmaceutical composition containing the biguanide derivative as an active ingredient” (Immunomet Therapeutics Inc., priority 2010, dated 2019) can be followed below.

The subject of series [1] is 5′-AMP-activated protein kinase (AMPK). Kind of series: AMPK activation (AMPKα Thr172 phosphorylation immunoassay) in MCF7 cells. Type of series: cell-based, human. As to conditions: MCF7 cells; for AMPK Activation (phosphorylated AMPKα Thr172): 50 μM compound, 24 hours; for fold induction at 50 µM: Homo sapiens, 24 h, 50 μM vs. 0 (cells without compound). The protocol: MCF7 cells derived from human breast cancer cells were used, and an effect of a biguanide derivative on 5′-AMP-activated protein kinase (AMPK) activation was confirmed using an AMPKα immunoassay kit (Invitrogen, catalog No. KHO0651).
The MCF7 cells were put on a 6-well plate and incubated in a DMEM medium containing 10% fetal bovine serum in an incubator to which 5% CO2 was supplied to have a cell count of approximately 5×10^5. 50 μM of derivatives synthesized in the examples were treated to the each culture medium, and the cells were incubated for 24 hours. Subsequently, the cells were lysed by a method presented in the operation manual of the AMPKα immunoassay kit, and 20 μg of cell lysates were yielded through protein assay. A degree of phosphorylation of an AMPKα threonine 172nd residue (Thr172) from the cell lysates were confirmed according to a method presented in the operation manual of the AMPKα immunoassay kit to thereby obtain results.
In addition, an experiment was performed in the same manner as described in Experimental Example 2 using metformin as a control group, and the results of an effect on AMPK activation were compared to the effect on AMPK activation when 1 mM metformin was treated.

Another series relates to HCT116 cells. Put plainly: Inhibition of cancer cell proliferation (MTT, GIC50). Type of series: cell-based. As to conditions: Homo sapiens, HCT-116, 48 hours incubation. The protocol: HCT116 cells derived from human colorectal cancer were used, and an effect of a biguanide derivative on the inhibition of cancer cell proliferation was confirmed by measuring a concentration value (cell growth inhibition concentration, GIC50) at which 50% of the cell growth was inhibited using a 3-(4,5-dimethylthiazol-2-yl)-2,5-diphenytetrazolium bromide (MTT) reagent.
First, HCT116 cells were put on a 96-well plate and cultured in a DMEM medium containing 10% bovine serum for 24 hours to each have cell count of approximately 5000. Subsequently, to obtain the GIC50 value of each compound, 100 μM (or 200 μM), 25 μM, 6.25 μM, 1.56 μM or 0.39 μM of the compound was treated to each culture medium and then incubated for 48 hours. To confirm living cells after treatment with the compound, MTT was added to each culture medium and further incubated for 3 hours. Generated formazane crystal was dissolved using dimethyl sulfoxide (DMSO) and absorbance of the solution was measured at 560 nm. After the 48-hour incubation, a ratio of a cell count cultured on a well plate not treated with the compound to a cell count on a well plate treated with compounds synthesized in the examples was indicated as cell viability (%) according to each administered concentration. A cell viability curve was plotted using the cell viability (%), and the calculated concentration value (GIC50) of the compound, at which 50% of the growth was inhibited was, to confirm an effect on the inhibition of cancer cell proliferation.

Consider `CN(C)C(=N)NC(=N)NCc1ccco1.Cl` [Example 26, N1,N1-dimethyl-N5-(furan-2-yl)methyl Biguanide Hydrochloride], for which the melting point was in the range of 176 to 177 °C. Also, in series [1], the “AMPK Activation (phosphorylated AMPKα Thr172)” value (from here on “AMPK Activation”) came to 8.9 and the fold induction at 50 µM stood at 1.7. The molecule also came in with a concentration for half-maximal inhibition (IC50) in the series on HCT116 cells of over 200 µM.

For `CN(C)C(=N)NC(=N)NCc1cccnc1.Cl` [Example 27, N1,N1-dimethyl-N5-(pyridine-3-yl)methyl Biguanide Hydrochloride], the melting point was in the range of 112 to 114 °C. In series [1], the “AMPK Activation” value is recorded as 4.6 and the fold induction at 50 µM amounted to 0.9. Also, the IC50 in the series on HCT116 cells was over 200 µM.

In turn, `CN(C)C(=N)NC(=N)NCc1ccccc1.Cl` [Example 28, N1,N1-dimethyl-N5-benzyl Biguanide Hydrochloride] yielded a melting point of 151 to 152 °C. In series [1], the “AMPK Activation” value is listed as 5.9 and the fold induction at 50 µM turned out to be 1.2. In addition, in the series with HCT116 cells, the IC50 is over 200 µM.

Turning to `CN(C)C(=N)NC(=N)NCCc1ccccc1.Cl` [Example 29, N1,N1-dimethyl-N5-(phenethyl) Biguanide Hydrochloride], the melting point is 155 to 157 °C. Further, in series [1], the “AMPK Activation” value turned out to be 14.7 and the fold induction at 50 µM turned out to be 2.8. The same molecule registered an IC50 in the series with HCT116 cells of over 200 µM.

Regarding `CCN(CC)C(=N)NC(=N)Nc1cccc(Cl)c1.Cl` [Example 30, N1,N1-diethyl-N5-(3-chloro)phenyl Biguanide Hydrochloride], the melting point fell in the range of 219 to 220 °C. Further, in series [1], the “AMPK Activation” value is on record as 19.3 and the fold induction at 50 µM stood at 7.7. This molecule also displayed an IC50 in the series with HCT116 cells of 28.3 µM.

`CCCN(CC)C(=N)NC(=N)Nc1ccc(Cl)cc1.Cl` [Example 32, N1,N1-(ethyl)(propyl)-N5-(4-chloro)phenyl Biguanide Hydrochloride] returned a melting point of 110 to 112 °C. Also, in series [1], the “AMPK Activation” value turned out to be 5.2 and the fold induction at 50 µM is 1. Besides, the IC50 in the series with HCT116 cells is over 200 µM.

`CCCN(CCC)C(=N)NC(=N)Nc1cccc2cnccc12.Cl` [Example 33, N1,N1-dipropyl-N5-(isoquinoline-5-yl) Biguanide Hydrochloride] registered a melting point of 191 to 192 °C. In addition, in series [1], the “AMPK Activation” value stood at 11.3 and the fold induction at 50 µM was 1.7. Also, the IC50 with HCT116 cells was over 100 µM.

Molecule `CCN(CC)C(=N)NC(=N)N(CC)CC.Cl` [Example 35, N1,N1,N5,N5-tetraethyl Biguanide Hydrochloride] yielded a melting point of 140 to 141 °C. Further, in series [1], the “AMPK Activation” value was determined as 3.8 and the fold induction at 50 µM is 0.7. In addition, the IC50 with HCT116 cells was over 200 µM.

For the molecule `CCN(CC)C(=N)NC(=N)N(C)C1CCCCC1.Cl` [Example 36, N1,N1-diethyl-N5,N5-(cyclohexyl)(methyl) Biguanide Hydrochloride], the melting point fell in the range of 115 to 117 °C. Besides, in series [1], the “AMPK Activation” value turned out to be 4.5 and the fold induction at 50 µM is 0.8. For the same molecule, the IC50 in the series with HCT116 cells is over 200 µM.

As for `CCCN(CCC)C(=N)NC(=N)N(CC)CC.Cl` [Example 37, N1,N1-dipropyl-N5,N5-diethyl Biguanide Hydrochloride], the melting point fell in the range of 151 to 152 °C. Further, in series [1], the “AMPK Activation” value is 33.3 and the fold induction at 50 µM worked out at 6.3. Also, the IC50 in the series with HCT116 cells is over 100 µM.

In turn, `CCCN(CCC)C(=N)NC(=N)N(C)CCc1ccccc1.Cl` [Example 38, N1,N1-dipropyl-N5,N5-(methyl)(phenethyl) Biguanide Hydrochloride] gave a melting point of 110 to 111 °C. In series [1], the “AMPK Activation” value is 35.8 and the fold induction at 50 µM turned out to be 6.8. Further, the IC50 with HCT116 cells is 36 µM.

`CCCN(CCC)C(=N)NC(=N)N(c1ccccc1)c1ccc(O)cc1.Cl` [Example 39, N1,N1-dipropyl-N5,N5-(4-hydroxylphenyl)(phenyl) Biguanide Hydrochloride]: the melting point is 189 to 190 °C. In addition, in series [1], the “AMPK Activation” value is on record as 28.8 and the fold induction at 50 µM was 4.2. In the series with HCT116 cells, this molecule displayed an IC50 of over 100 µM.

The molecule `CN(Cc1ccccc1)C(=N)NC(=N)N(C)Cc1ccccc1.Cl` [Example 40, N1,N1,N5,N5-bis((benzyl)(methyl)) Biguanide Hydrochloride] displayed a melting point of 141 to 142 °C. For the same molecule, in series [1], the “AMPK Activation” value turned out to be 11.3 and the fold induction at 50 µM worked out at 1.7. Further, in the series on HCT116 cells, the IC50 was over 100 µM.
